Experimental data: patent publication US6602906B1 (priority 2002, dated 2003)
Like-named read-outs stand apart in the source and are kept apart here. Values belong to the molecule of their own block, whether it stands above or below them.

Legend:
[1] = Storage stability of the 5.0 wt % topical solution; format: physicochemical
Experimental: For topical use, a homogeneous solution in accordance with the present invention containing 5.0 wt % 5,6-O-isopropylidene L-ascorbic acid was prepared by mixing the ingredients shown in TABLE 1. The ingredients were added in the order given and in the given amounts. The solution was prepared in a glass container with continuous stirring. After the addition of the zinc sulfate, and again after the addition of the glycerin, the solution was heated to approximately 60° C. The heating increased the solubility of the 2-phenoxyethanol and of the 5,6-O-isopropylidene L-ascorbic acid. The solution was then filtered through a fine plastic mesh, yielding a clear, colorless to very pale yellow liquid. The 5,6-O-isopropylidene L-ascorbic acid in this solution will retain its potency for approximately six months if the solution is stored at room temperature in a bottle that is impervious to ultraviolet light. In darkness at 10° C., 5,6-O-isopropylidene L-ascorbic acid in solution will remain stable and potent for approximately 18 months.

inflamed skin = inflamed skin treated with acetone; cited from earlier work
human skin = details: applied topically prior to UVB; cited from earlier work
pig skin = details: applied topically prior to UVB; cited from earlier work
[2] = neutral pH; cited from earlier work
[3] = 20 wt %, pH 2.0; cited from earlier work
skin of humans = details: topical application; cited from earlier work
mouse skin = details: topical application, (hairless) mice; cited from earlier work
mice = details: topical; cited from earlier work
[4] = in the human; cited from earlier work
[5] = cited from earlier work

time the compound in solution retains its potency ([1]; 5.0 wt % solution of TABLE 1, room temperature, bottle impervious to ultraviolet light): approximately six | time the compound in solution remains stable and potent ([1]; solution, in darkness at 10° C.): approximately 18 months
Structure (SMILES): CC1(C)OC[C@@H]([C@H]2OC(=O)C(O)=C2O)O1 [5,6-O-isopropylidene L-ascorbic acid]

Structure (SMILES): CC(C)=O [acetone]
erythema and edema (inflamed skin): diminished | presence of mononuclear cells (indicator of inflammation) (inflamed skin): significant decrease

Structure (SMILES): O=C1O[C@H]([C@@H](O)CO)C(O)=C1O [ascorbic acid]
pKa (pKa of the molecule): […] | erythema and sunburn after UVB irradiation (human skin): erythema and sunburn were prevented | erythema and sunburn after UVB irradiation (pig skin): erythema and sunburn were prevented | stability in aqueous solutions [2]: very unstable | skin irritation [3]: highly irritating to the skin | photoaging changes in the skin (skin of humans): decreased | photoaging changes / protection against photoaging in mouse skin (mouse skin): decreased | protection against UV-induced immunosuppression and tolerance to contact antigen (mice): protect against UV-induced immunosuppression | half-life [4]: about 20 days

Structure (SMILES): CCCCCCCCCCCCCCCC(=O)OC[C@H](O)[C@H]1OC(=O)C(O)=C1O [ascorbyl-6-palmitate, Ascorbyl-6-palmitate]
skin levels of ascorbic acid ([5]; topical serum containing 10 wt %): no significant increase | photoaging changes / protection against photoaging in mouse skin (mouse skin): failed to demonstrate protection against photoaging

Structure (SMILES): O=C1O[C@H]([C@@H](O)CO)C([O-])=C1OP(=O)([O-])[O-].O=C1O[C@H]([C@@H](O)CO)C([O-])=C1OP(=O)([O-])[O-].[Mg+2].[Mg+2].[Mg+2] [magnesium ascorbyl 2-phosphate]
skin levels of ascorbic acid ([5]; topical serum containing 13 wt %): failed to increase skin levels of ascorbic acid
